The source of these data is US5861498A, “Nucleotides encoding immunophilin FKBP46 and fragments thereof” (Thomas Jefferson University, priority 1996, dated 1999).

The target of series [1] is T1, FKBP46 (Spodoptera frugiperda, UniProt Q26486).
T1 construct: Nuclear extract containing full-length FKBP46; made in house
T1 sequence (Q26486 1-412): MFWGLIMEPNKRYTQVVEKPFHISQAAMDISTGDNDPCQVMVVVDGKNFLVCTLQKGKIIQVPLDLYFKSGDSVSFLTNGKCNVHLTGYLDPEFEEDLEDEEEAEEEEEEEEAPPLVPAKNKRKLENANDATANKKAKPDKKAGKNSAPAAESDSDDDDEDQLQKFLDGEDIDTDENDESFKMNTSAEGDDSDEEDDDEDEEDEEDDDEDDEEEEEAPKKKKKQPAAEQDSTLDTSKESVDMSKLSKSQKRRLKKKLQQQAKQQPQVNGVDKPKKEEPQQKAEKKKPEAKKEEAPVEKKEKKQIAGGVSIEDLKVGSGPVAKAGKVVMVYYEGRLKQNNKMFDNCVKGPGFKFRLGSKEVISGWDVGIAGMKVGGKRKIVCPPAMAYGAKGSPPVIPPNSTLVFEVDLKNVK
Nature of the series: Peptidylprolyl cis-trans isomerase assay, inhibition by FK506. In kind it is biochemical, Sf9 insect cell. Particulars: 5 μM FK506, 100 nM His-FKBP46, 15° C.; FIG. 3B curve B. On the procedure:
(§1) FIGS. 3A and 3B show FK506 binding and Peptidylprolyl cis-trans isomerase activities of FKBP46. In FIG. 3A, purified His-FKBP46 immobilized on Ni^2+ affinity resin was incubated with [^3 H]dihydro-FK506 in the presence […] or absence of cold FK506. The numbers under each column represent different amounts of nuclear extracts in microliters from Sf9 cells--expressing His-FKBP46 bound to separate Ni^2+ affinity resins. Nuclear extracts from wild type (WT) baculovirus infected Sf9 cells (10 μl) were bound to Ni^2+ affinity resin and used as a control. The amount of radioactivity associated with each resin sample is represented in disintegrations/min. In FIG. 3B, time-dependant release of p-nitroanilide by chymotrypsin from trans N-succinyl-Ala-Leu-Pro-Phe-p-nitroanilide measured by absorbance at 400 nm. […]
Peptidylprolyl cis-trans Isomerase Assay--Peptidylprolyl isomerase activity of FKBP46 was assayed as described previously (Harrison, R. K., and Stein, R. L. (1990) Biochemistry 29, 3813-3816 and Park, S. T., et al. (1992) J. Biol. Chem. 267, 3316-3324) with some modifications. […] The reaction was started by the addition of chymotrypsin (100 μg/ml final) (Sigma), and the release of p-nitroanilide by chymotrypsin was measured by recording the increase in absorbance at 400 nm using a Perkin Elmer λ 3B spectrophotometer connected to a chart recorder. […]

The target in series [2] is T1, FKBP46. Nature of the series: [3H]Dihydro-FK506 binding assay, His-FKBP46 immobilized on Ni2+ affinity resin. Also noted: species or system Sf9 insect cell. Here is the method: as §1, with “nm. Curve A reflects the rate of release of p-nitroanilide in a reaction catalyzed by FKBP46. Curve B is the same as curve A but in the presence of 5 μM FK506. Curve C is the same but without FKBP46.” for “nm.”
The radioactivity associated with FKBP46 was measured by scintillation counting. […] Chymotrypsin hydrolyzes the trans form to generate p-nitroanilide, which can be quantitated spectrophotometrically at 400 nm. […] From these curves, the specific activity of FKBP46 was calculated using the first order rate constant (S^-1), and the molar concentration of FKBP46 to be about 7.8×10^6 […]. […]

In series [3] the test system is N-succinyl-Ala-Leu-Pro-Phe-p-nitroanilide. Particulars: literature value for comparison (ref 19); cited from earlier work.
For series [4], the target named is N-succinyl-Ala-Leu-Pro-Phe-p-nitroanilide.
Series [5] has as its system N-succinyl-Ala-Leu-Pro-Phe-p-nitroanilide. Description: Peptidylprolyl cis-trans isomerase assay, specific activity of the immunophilin. The format is biochemical. Particulars: His-FKBP46 100 nM, substrate 75 μM, 15° C. Here is the method: Peptidylprolyl cis-trans Isomerase Assay--Peptidylprolyl isomerase activity of FKBP46 was assayed as described previously (Harrison, R. K., and Stein, R. L. (1990) Biochemistry 29, 3813-3816 and Park, S. T., et al. (1992) J. Biol. Chem. 267, 3316-3324) with some modifications. His-FKBP46 (100 nM final) was incubated with the peptide substrate N-succinyl-Ala-Leu-Pro-Phe-p-nitroanilide (75 μM final) (Bachem, Switzerland) at 15° C. for 15 min. The reaction was started by the addition of chymotrypsin (100 μg/ml final) (Sigma), and the release of p-nitroanilide by chymotrypsin was measured by recording the increase in absorbance at 400 nm using a Perkin Elmer λ 3B spectrophotometer connected to a chart recorder.
The radioactivity associated with FKBP46 was measured by scintillation counting. […] Under these conditions, maximal binding was obtained when 10 μl of nuclear extracts containing recombinant His-FKBP46 were immobilized on Ni^2+ affinity resin (FIG. 3A, column 6). […] Chymotrypsin hydrolyzes the trans form to generate p-nitroanilide, which can be quantitated spectrophotometrically at 400 nm. […] From these curves, the specific activity of FKBP46 was calculated using the first order rate constant (S^-1), and the molar concentration of FKBP46 to be about 7.8×10^6 […]. […]

The term inhibition denotes how much of the control response was suppressed. A high value points to a response far below the control. For the molecule `C=CC[C@@H]1/C=C(\C)C[C@H](C)C[C@H](OC)[C@H]2O[C@@](O)(C(=O)C(=O)N3CCCC[C@H]3C(=O)O[C@H](/C(C)=C/[C@@H]3CC[C@@H](O)[C@H](OC)C3)[C@H](C)[C@@H](O)CC1=O)[C@H](C)C[C@@H]2OC` [FK506], the inhibition at 5 µM at FKBP46 [1] is about 50%. In addition, the “[3H]dihydro-FK506 binding to FKBP46 in the presence of excess cold FK506” value at FKBP46 [2] (5000-fold excess of cold FK506, comparable with mock purified wild type extract, FIG. 3A columns 3, 5, 7) is recorded as “minimal”.

`[3H]CC([3H])C[C@@H]1/C=C(\C)C[C@H](C)C[C@H](OC)[C@H]2O[C@@](O)(C(=O)C(=O)N3CCCC[C@H]3C(=O)O[C@H](/C(C)=C/[C@@H]3CC[C@@H](O)[C@H](OC)C3)[C@H](C)[C@@H](O)CC1=O)[C@H](C)C[C@@H]2OC` (stereo partly drawn) [[^3 H]dihydro-FK506]: the “[3H]dihydro-FK506 binding to FKBP46 (radioactivity associated with resin)” value on FKBP46 [2] (50 nM [3H]dihydro-FK506, on ice 18 h, absence of cold FK506, FIG. 3A) is reported as “can bind specifically to FKBP46 in a dose-dependent manner”.

Turning to “hFKBP12: human FK binding protein FKBP12, comparison immunophilin”, the specific activity result in series [3] is “about 4.3×10^6 s^-1. M^-1”.

Consider recombinant His-FKBP46, for which, in series [4], the peptidylprolyl cis-trans isomerase activity (chymotrypsin-coupled release of p-nitroanilide, absorbance at 400 nm) came out at 7.8e+06 s⁻¹ M⁻¹.

B1: FKBP46: novel Sf9 insect cell nuclear immunophilin, SEQ ID NO:2; tested as recombinant His-tagged protein (protein)
chain: T1 sequence (Q26486 1-412)
modifications: His tag
notes: tested as recombinant His-tagged protein
Turning to B1, the “specific activity (first order rate constant / molar concentration)” value in series [5] is reported as “about 7.8×10^6 s^-1. M^-1”.
